From ChEMBL document CHEMBL3994622, “Design and synthesis of new RAF kinase-inhibiting antiproliferative quinoline derivatives. Part 2: Diarylurea derivatives” (Eur J Med Chem, 2017)

Columns and labels:
HL-60(TB) = assay: Growth inhibition of human HL-60(TB) cells assessed as cell growth at 0.005 uM incubated for 48 hrs by sulforhodamine B assay relative to control; assay type: functional; conditions: HL-60, 48 h, read-out: Activity
RPMI-8226 [1] = assay: Growth inhibition of human RPMI8226 cells assessed as cell growth at 0.005 uM incubated for 48 hrs by sulforhodamine B assay relative to control; assay type: functional; conditions: RPMI-8226, 48 h, read-out: Activity
Malme-3M = assay: Growth inhibition of human MALME-3M cells assessed as cell growth at 0.005 uM incubated for 48 hrs by sulforhodamine B assay relative to control; assay type: functional; conditions: read-out: Activity
ACHN [2] = assay: Growth inhibition of human ACHN cells assessed as cell growth at 0.005 uM incubated for 48 hrs by sulforhodamine B assay relative to control; assay type: functional; conditions: read-out: Activity
MDA-MB-231 [3] = assay: Growth inhibition of human MDA-MB-231 cells assessed as cell growth at 0.005 uM incubated for 48 hrs by sulforhodamine B assay relative to control; assay type: functional; conditions: MDA-MB-231, 48 h, read-out: Activity
RPMI-8226 [4] = assay: Growth inhibition of human RPMI8226 cells assessed as cell growth at 0.05 uM incubated for 48 hrs by sulforhodamine B assay relative to control; assay type: functional; conditions: RPMI-8226, 48 h, read-out: Activity
EKVX [5] = assay: Growth inhibition of human EKVX cells assessed as cell growth at 0.05 uM incubated for 48 hrs by sulforhodamine B assay relative to control; assay type: functional; conditions: read-out: Activity
NCI-H226 [6] = assay: Growth inhibition of human NCI-H226 cells assessed as cell growth at 0.05 uM incubated for 48 hrs by sulforhodamine B assay relative to control; assay type: functional; conditions: NCI-H226, 48 h, read-out: Activity
KM12 = assay: Growth inhibition of human KM12 cells assessed as cell growth at 0.05 uM incubated for 48 hrs by sulforhodamine B assay relative to control; assay type: functional; conditions: KM12, 48 h, read-out: Activity
SK-MEL-2 = assay: Growth inhibition of human SK-MEL-2 cells assessed as cell growth at 0.05 uM incubated for 48 hrs by sulforhodamine B assay relative to control; assay type: functional; conditions: SK-MEL-2, 48 h, read-out: Activity
NCI-H226 [7] = assay: Growth inhibition of human NCI-H226 cells assessed as cell growth at 0.5 uM incubated for 48 hrs by sulforhodamine B assay relative to control; assay type: functional; conditions: NCI-H226, 48 h, read-out: Activity
NCI-H460 = assay: Growth inhibition of human NCI-H460 cells assessed as cell growth at 0.5 uM incubated for 48 hrs by sulforhodamine B assay relative to control; assay type: functional; conditions: NCI-H460, 48 h, read-out: Activity
SW-620 = assay: Growth inhibition of human SW620 cells assessed as cell growth at 0.5 uM incubated for 48 hrs by sulforhodamine B assay relative to control; assay type: functional; conditions: SW-620, 48 h, read-out: Activity
SNB-75 = assay: Growth inhibition of human SNB75 cells assessed as cell growth at 0.5 uM incubated for 48 hrs by sulforhodamine B assay relative to control; assay type: functional; conditions: SNB-75, 48 h, read-out: Activity
UO-31 = assay: Growth inhibition of human UO31 cells assessed as cell growth at 0.5 uM incubated for 48 hrs by sulforhodamine B assay relative to control; assay type: functional; conditions: UO-31, 48 h, read-out: Activity
DU-145 [8] = assay: Growth inhibition of human DU145 cells assessed as cell growth at 0.5 uM incubated for 48 hrs by sulforhodamine B assay relative to control; assay type: functional; conditions: DU-145, 48 h, read-out: Activity
RPMI-8226 [9] = assay: Growth inhibition of human RPMI8226 cells assessed as cell growth at 5 uM incubated for 48 hrs by sulforhodamine B assay relative to control; assay type: functional; conditions: RPMI-8226, 48 h, read-out: Activity
SF-268 = assay: Growth inhibition of human SF268 cells assessed as cell growth at 5 uM incubated for 48 hrs by sulforhodamine B assay relative to control; assay type: functional; conditions: SF-268, 48 h, read-out: Activity
MDA-MB-435 = assay: Growth inhibition of human MDA-MB-435 cells assessed as cell growth at 5 uM incubated for 48 hrs by sulforhodamine B assay relative to control; assay type: functional; conditions: MDA-MB-435, 48 h, read-out: Activity
OVCAR-3 = assay: Growth inhibition of human OVCAR3 cells assessed as cell growth at 5 uM incubated for 48 hrs by sulforhodamine B assay relative to control; assay type: functional; conditions: OVCAR-3, 48 h, read-out: Activity
ACHN [10] = assay: Growth inhibition of human ACHN cells assessed as cell growth at 5 uM incubated for 48 hrs by sulforhodamine B assay relative to control; assay type: functional; conditions: read-out: Activity
PC-3 = assay: Growth inhibition of human PC3 cells assessed as cell growth at 5 uM incubated for 48 hrs by sulforhodamine B assay relative to control; assay type: functional; conditions: PC-3, 48 h, read-out: Activity
T47D = assay: Growth inhibition of human T47D cells assessed as cell growth at 5 uM incubated for 48 hrs by sulforhodamine B assay relative to control; assay type: functional; conditions: read-out: Activity
A549 = assay: Growth inhibition of human A549/ATCC cells assessed as cell growth at 50 uM incubated for 48 hrs by sulforhodamine B assay relative to control; assay type: functional; conditions: A549, 48 h, read-out: Activity
NCI-H23 = assay: Growth inhibition of human NCI-H23 cells assessed as cell growth at 50 uM incubated for 48 hrs by sulforhodamine B assay relative to control; assay type: functional; conditions: NCI-H23, 48 h, read-out: Activity
UACC-62 = assay: Growth inhibition of human UACC62 cells assessed as cell growth at 50 uM incubated for 48 hrs by sulforhodamine B assay relative to control; assay type: functional; conditions: UACC-62, 48 h, read-out: Activity
NCI/ADR-RES = assay: Growth inhibition of human NCI/ADR-RES cells assessed as cell growth at 50 uM incubated for 48 hrs by sulforhodamine B assay relative to control; assay type: functional; conditions: read-out: Activity
DU-145 [11] = assay: Growth inhibition of human DU145 cells assessed as cell growth at 50 uM incubated for 48 hrs by sulforhodamine B assay relative to control; assay type: functional; conditions: DU-145, 48 h, read-out: Activity
MDA-MB-231 [12] = assay: Growth inhibition of human MDA-MB-231 cells assessed as cell growth at 50 uM incubated for 48 hrs by sulforhodamine B assay relative to control; assay type: functional; conditions: MDA-MB-231, 48 h, read-out: Activity
[13] = biological target: Dual specificity mitogen-activated protein kinase kinase 1 (Homo sapiens) (UniProt Q02750); assay: Inhibition of human MEK1 at 10 uM using ERK2 as substrate in presence of [33P]ATP by Hotspot assay relative to control
LOX IMVI = assay: Growth inhibition of human LOXIMVI cells assessed as cell growth at 0.003 uM incubated for 48 hrs by sulforhodamine B assay relative to control; assay type: functional; conditions: read-out: Activity
EKVX [14] = assay: Growth inhibition of human EKVX cells assessed as cell growth at 0.03 uM incubated for 48 hrs by sulforhodamine B assay relative to control; assay type: functional; conditions: read-out: Activity
MDA-MB-468 [15] = assay: Growth inhibition of human MDA-MB-468 cells assessed as cell growth at 0.01 uM incubated for 48 hrs by sulforhodamine B assay relative to control; assay type: functional; conditions: MDA-MB-468, 48 h, read-out: Activity
MDA-MB-468 [16] = assay: Growth inhibition of human MDA-MB-468 cells assessed as cell growth at 0.1 uM incubated for 48 hrs by sulforhodamine B assay relative to control; assay type: functional; conditions: MDA-MB-468, 48 h, read-out: Activity

Chain of Dual specificity mitogen-activated protein kinase kinase 1 (Homo sapiens) (Q02750 whole entry): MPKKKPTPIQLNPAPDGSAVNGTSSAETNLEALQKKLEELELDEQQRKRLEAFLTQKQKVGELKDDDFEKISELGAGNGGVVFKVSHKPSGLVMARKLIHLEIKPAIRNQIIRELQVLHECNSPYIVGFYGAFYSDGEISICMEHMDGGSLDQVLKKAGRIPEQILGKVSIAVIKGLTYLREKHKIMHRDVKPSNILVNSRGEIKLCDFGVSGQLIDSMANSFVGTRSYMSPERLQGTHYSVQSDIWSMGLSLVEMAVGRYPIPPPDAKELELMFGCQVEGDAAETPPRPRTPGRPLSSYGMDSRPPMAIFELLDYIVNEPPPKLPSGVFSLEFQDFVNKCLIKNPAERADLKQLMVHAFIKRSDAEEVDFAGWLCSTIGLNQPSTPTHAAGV

`COc1cc2cc(Oc3ccc(NC(=O)Nc4cccc(C(F)(F)F)c4)cc3)c(C)nc2cc1OC` gave a growth at 0.005 µM (HL-60(TB)) of 104%, a growth at 0.005 µM (RPMI-8226 [1]) of 103% and a growth at 0.005 µM (Malme-3M) of 94%. For the same molecule, the growth at 0.005 µM (ACHN [2]) was 97%, the growth at 0.005 µM (MDA-MB-231 [3]) was 93% and the growth at 0.05 µM (RPMI-8226 [4]) was 96%. For the same molecule, the growth at 0.05 µM (EKVX [5]) was 102%, the growth at 0.05 µM (NCI-H226 [6]) was 104% and the growth at 0.05 µM (KM12) was 89%. It also gave a growth at 0.05 µM (SK-MEL-2) of 104%, a growth at 0.5 µM (NCI-H226 [7]) of 108% and a growth at 0.5 µM (NCI-H460) of 96%. It also gave a growth at 0.5 µM (SW-620) of 108%, a growth at 0.5 µM (SNB-75) of 77% and a growth at 0.5 µM (UO-31) of 106%. The growth at 0.5 µM (DU-145 [8]) was 104%, the growth at 5 µM (RPMI-8226 [9]) was -25% and the growth at 5 µM (SF-268) was 31%. For the same molecule, the growth at 5 µM (MDA-MB-435) was 13%, the growth at 5 µM (OVCAR-3) was 15% and the growth at 5 µM (ACHN [10]) was 8%. For the same molecule, the growth at 5 µM (PC-3) was 3%, the growth at 5 µM (T47D) was 7% and the growth at 50 µM (A549) was -72%. It also gave a growth at 50 µM (NCI-H23) of -42%, a growth at 50 µM (UACC-62) of -44% and a growth at 50 µM (NCI/ADR-RES) of -56%. The growth at 50 µM (DU-145 [11]) was -32% and the growth at 50 µM (MDA-MB-231 [12]) was -82%.
`COc1cc2cc(Oc3ccc(NC(=O)Nc4ccc(Cl)c(C(F)(F)F)c4)cc3)c(C)nc2cc1OC` showed an inhibition [13] of -0.258%, a growth at 0.003 µM (LOX IMVI) of 100% and a growth at 0.03 µM (EKVX [14]) of 97%.
With `COc1cc2cc(Oc3ccc(NC(=O)Nc4cc(C(F)(F)F)cc(C(F)(F)F)c4)cc3)c(C)nc2cc1OC` the growth at 0.01 µM (MDA-MB-468 [15]) was 101% and the growth at 0.1 µM (MDA-MB-468 [16]) was 104%.
